Results on nine compounds are retold here after patent US20230027026A1, “FUSED PYRIMIDINE COMPOUNDS, COMPOSITIONS AND MEDICINAL APPLICATIONS THEREOF” (JUBILANT BIOSYS LIMITED, priority 2019, published 2023).

For assay [1], the target named is T1, EGFR (T790M/L858R) (Homo sapiens, UniProt P00533, L858R/T790M).
T1 construct: GST; purchased Proqinase
Nature of the assay: EGFR L858R/T790M enzyme inhibition assay (HTRF). Format: biochemical. Particulars: 5 μM ATP, 60 min, read-out: EGFR_L858R T790M_IC50_nM. The method, then: Example 2: EGFR L858R & Del19/T790M Assay Protocol (to Find the IC50 for the Compounds Using HTRF Method)
Reagents for Enzyme Assay:
• 1. Enzyme Assay Buffer: 60 mM HEPES (pH 7.4), 50 mM NaCl, 20 mM MgCl2, 5 mM MnCl2, filtered using 0.2 μm pore size, stored at 4° C. • Supplements (added fresh to the enzyme buffer): 1M DTT stock was made, 5% BSA stock and 0.1M Na3OV4 stored at 4° C. Enzyme assay buffer 50 mL, 1 M DTT 100 μL, 5% BSA 500 μL, 0.1 M Na3OV4 50 μL. • 2. GST-hEGFR (L858R), active: EGFR (T790M/L858R), active (Proqinase), 3.6 μM stock; 2.5 nM in final assay. • 3. Gastrin Precusor-Biotinylated: Gastrin precursor (Tyr87) biotinylated peptide, EEAY*GWM, Cell Signaling Tech 1310, Lot-7, Want final 0.5 μM in assay. • 4. ATP: 10 mM stock in 100 μL Enzyme assay buffer pH 7.4 prepared freshly, want 5 μM in final assay. • 5. Test compounds: Powders were dissolved in 100% DMSO and made up to a final stock concentration of 10 mM (volume in μL to add for 10 mM=mg powder X 10^5/MW). Final compound concentration in the assay plate started at 10 μM.
• 1. HTRF buffer: 50 mM Tris —HCl, pH-7.5, 100 mM NaCl, 0.1% BSA, 0.05% Tween20, 0.5 mM EDTA, filtered using 0.2 μm pore size, stored at 4° C. • Phycolink® Streptavidin-Allophycocyanin (SA-APC) Prozyme, Cat. #PJ25S, Lot #896 085, 2.06 mg/mL, APC concentration is 11.6 μM, streptavidin concentration is 15.5 μM. Want 12 nM final in assay (based on streptavidin concentration). • 2. (Europium) Eu-W1024 Anti-phosphotyrosine (PT-66) Antibody: Perkin Elmer (Product Number: AD0068), monoclonal IgG1 that recognizes phosphotyrosine peptide 100 μg/ml stock. Want 0.1 nM final in assay.
• 1. The compound dilution was made by TECAN as per the above scheme. • 2. 16 μL of diluted compound was added to the assay plate by using TECAN. • 3. 10 μL of enzyme mix was added to each well except mins. • 4. 20 μL of substrate and ATP mix were added into each well of the assay plate, manually. • 5. The plate was incubated on a laboratory shaker at room temperature for 60 min. • 6. Meanwhile, the HTRF mix was prepared and 75 μL was added to the HTRF plate. • 7. When the incubation was over, 10 μL of the reaction mixture was transferred to the HTRF assay plate and incubated on a laboratory shaker for 30 min at room temperature. • 8. The reading was taken in Pherastar (ext 337 nm, Em 665 & 620 nm). • 9. The results were analyzed using Graphpad prism after calculation of the z factor, signal window and % inhibition to get the IC50.
For orientation: Time-resolved FRET reads energy transfer from a long-lived donor to a nearby acceptor.

In assay [2] the test system is A431 cells. Nature of the assay: Cellular proliferation (Alamar Blue) assay, A431. Conditions: Homo sapiens, A-431; A431 cells, 72 hr, Alamar Blue; read-out: A431 IC50. Format: cell-based. The protocol: (§1) Example 3: Cellular Proliferation (Alamar Blue) Assays
(§2) • 1. EGFR(D770_N771insSVD) expressing Ba/F3 stable cell line • 2. EGFR (A767_dupASV) expressing Ba/F3 stable cell line • 3. A431 cells • 4. BTER2 (A775_G776insYVMA) expressing Ba/F3 stable cell line • 5. BTER2 (WT) expressing Ba/F3 stable cell line • 6. BT-474 cells
(§3) • 1. Seed cells at 5000 for A431 and 15,000 cells for Ba/F3 in 100 μL/well in complete media (for A431: DMEM with 10% FBS and for Ba/F3 cells: RPMI with 10% FBS) in 96-well tissue culture plate. Leave outer wells without cells for background measurements. Incubate at 37 degree Celsius in 5% CO2 humidified incubator for 16-18 hours. • 2. Add 0.025 ml of 5× concentration compound dilution or DMSO control. Final compound concentration range is 10-0.0005 μM prepared in 3-fold serial dilutions. Incubate for 72 hr at 37 degree Celsius in […] humidified incubator. • 3. Add 0.0125 mL Alamar Blue™ reagent to each well with multi-channel pipette and tap gently on each side of the plate to mix. Incubate for 3 hours at 37 degree Celsius in […] humidified incubator. • 4. Read plates on fluorescence reader (Tecan Spark Control, Device: Spark, Serial #: 1801006040) at 540 nm excitation, 590 nm emission wavelength. • 5. Data analysis was performed using XLfit 5.5.0.5.
In general terms: The colour change of resazurin is a common sign of viable cells or microbes.

The target of assay [3] is EGFR (A767_dupASV) expressing Ba/F3 stable cell line (Homo sapiens, UniProt P00533, DUP767-769, cells depend on it). In words: Cellular proliferation (Alamar Blue) assay, EGFR A767_dupASV Ba/F3. Format: cell-based. Conditions: EGFR A767_dupASV Ba/F3, 72 hr, read-out: A767 IC50. The protocol: as §1, §2, §3
For assay [4], the target named is EGFR(D770_N771insSVD) expressing Ba/F3 stable cell line (Homo sapiens, UniProt P00533, DUP768-770, cells depend on it). Nature of the assay: Cellular proliferation (Alamar Blue) assay, EGFR D770_N771insSVD Ba/F3. The class given is cell-based. Conditions: EGFR D770_N771insSVD Ba/F3, 72 hr, read-out: D770 IC50. The method, then: as §1, §2, §3
Sequence of EGFR(D770_N771insSVD) expressing Ba/F3 stable cell line (P00533 with tags, fused parts or gaps DUP768-770): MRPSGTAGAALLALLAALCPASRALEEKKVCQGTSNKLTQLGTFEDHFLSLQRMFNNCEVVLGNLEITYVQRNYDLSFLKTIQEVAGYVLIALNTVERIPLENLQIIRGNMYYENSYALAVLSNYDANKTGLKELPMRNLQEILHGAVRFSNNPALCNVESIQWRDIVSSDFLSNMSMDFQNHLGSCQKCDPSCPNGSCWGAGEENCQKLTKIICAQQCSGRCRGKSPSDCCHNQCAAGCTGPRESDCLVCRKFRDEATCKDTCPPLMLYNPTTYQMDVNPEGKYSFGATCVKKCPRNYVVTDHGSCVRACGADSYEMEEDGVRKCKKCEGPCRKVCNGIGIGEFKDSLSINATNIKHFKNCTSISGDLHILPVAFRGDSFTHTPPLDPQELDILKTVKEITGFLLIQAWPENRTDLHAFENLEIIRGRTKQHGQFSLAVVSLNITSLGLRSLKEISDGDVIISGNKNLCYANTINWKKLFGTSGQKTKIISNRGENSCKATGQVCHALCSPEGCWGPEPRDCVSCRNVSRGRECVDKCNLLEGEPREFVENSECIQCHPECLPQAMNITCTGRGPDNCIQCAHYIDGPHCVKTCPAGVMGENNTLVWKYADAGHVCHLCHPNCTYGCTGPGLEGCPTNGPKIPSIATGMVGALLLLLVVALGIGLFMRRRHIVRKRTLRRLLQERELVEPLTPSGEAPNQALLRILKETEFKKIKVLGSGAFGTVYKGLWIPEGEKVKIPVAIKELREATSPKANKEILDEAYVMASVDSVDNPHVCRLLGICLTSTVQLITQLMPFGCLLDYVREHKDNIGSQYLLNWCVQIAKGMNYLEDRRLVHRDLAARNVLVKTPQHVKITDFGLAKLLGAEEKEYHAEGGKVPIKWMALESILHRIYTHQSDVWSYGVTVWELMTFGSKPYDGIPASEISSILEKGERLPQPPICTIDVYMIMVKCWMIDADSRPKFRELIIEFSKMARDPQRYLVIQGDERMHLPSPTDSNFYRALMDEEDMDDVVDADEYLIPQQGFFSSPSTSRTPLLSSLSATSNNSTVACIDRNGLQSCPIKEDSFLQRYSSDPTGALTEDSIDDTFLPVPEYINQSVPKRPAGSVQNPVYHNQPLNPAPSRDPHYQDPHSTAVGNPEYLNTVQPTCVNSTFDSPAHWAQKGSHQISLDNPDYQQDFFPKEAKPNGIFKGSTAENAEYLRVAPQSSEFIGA

Sequence of EGFR (A767_dupASV) expressing Ba/F3 stable cell line (P00533 with tags, fused parts or gaps DUP767-769): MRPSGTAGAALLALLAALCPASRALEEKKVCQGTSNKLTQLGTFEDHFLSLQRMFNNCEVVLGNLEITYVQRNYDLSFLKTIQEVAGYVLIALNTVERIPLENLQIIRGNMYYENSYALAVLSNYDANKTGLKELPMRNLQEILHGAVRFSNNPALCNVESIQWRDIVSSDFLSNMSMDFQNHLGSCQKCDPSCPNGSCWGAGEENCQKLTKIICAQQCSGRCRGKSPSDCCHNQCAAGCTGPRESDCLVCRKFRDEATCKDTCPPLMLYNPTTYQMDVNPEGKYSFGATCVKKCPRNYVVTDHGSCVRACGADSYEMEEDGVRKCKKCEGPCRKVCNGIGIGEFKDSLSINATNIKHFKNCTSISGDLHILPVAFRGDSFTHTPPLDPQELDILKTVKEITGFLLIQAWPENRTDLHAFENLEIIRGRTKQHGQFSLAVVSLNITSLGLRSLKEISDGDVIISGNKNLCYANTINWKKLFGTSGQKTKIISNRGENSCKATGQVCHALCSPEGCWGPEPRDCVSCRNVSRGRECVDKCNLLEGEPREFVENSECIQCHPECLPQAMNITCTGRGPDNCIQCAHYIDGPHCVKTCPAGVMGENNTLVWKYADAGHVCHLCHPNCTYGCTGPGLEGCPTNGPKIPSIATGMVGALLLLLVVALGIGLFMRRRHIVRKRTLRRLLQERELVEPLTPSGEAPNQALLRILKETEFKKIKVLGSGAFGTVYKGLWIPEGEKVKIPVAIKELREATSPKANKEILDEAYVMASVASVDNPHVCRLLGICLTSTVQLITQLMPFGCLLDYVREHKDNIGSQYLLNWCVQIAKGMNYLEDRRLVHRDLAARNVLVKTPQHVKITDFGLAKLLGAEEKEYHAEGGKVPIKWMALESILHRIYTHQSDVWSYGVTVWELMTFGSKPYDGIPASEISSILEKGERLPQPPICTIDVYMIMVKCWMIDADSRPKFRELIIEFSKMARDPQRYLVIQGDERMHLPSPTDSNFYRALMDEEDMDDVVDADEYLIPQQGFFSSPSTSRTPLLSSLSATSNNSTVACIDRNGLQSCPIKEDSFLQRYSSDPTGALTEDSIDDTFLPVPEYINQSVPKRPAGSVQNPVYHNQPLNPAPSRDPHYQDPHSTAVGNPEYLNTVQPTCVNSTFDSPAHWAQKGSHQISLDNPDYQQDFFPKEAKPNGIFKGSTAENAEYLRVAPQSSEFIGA
T1 sequence (P00533 25-1210 T790M/L858R): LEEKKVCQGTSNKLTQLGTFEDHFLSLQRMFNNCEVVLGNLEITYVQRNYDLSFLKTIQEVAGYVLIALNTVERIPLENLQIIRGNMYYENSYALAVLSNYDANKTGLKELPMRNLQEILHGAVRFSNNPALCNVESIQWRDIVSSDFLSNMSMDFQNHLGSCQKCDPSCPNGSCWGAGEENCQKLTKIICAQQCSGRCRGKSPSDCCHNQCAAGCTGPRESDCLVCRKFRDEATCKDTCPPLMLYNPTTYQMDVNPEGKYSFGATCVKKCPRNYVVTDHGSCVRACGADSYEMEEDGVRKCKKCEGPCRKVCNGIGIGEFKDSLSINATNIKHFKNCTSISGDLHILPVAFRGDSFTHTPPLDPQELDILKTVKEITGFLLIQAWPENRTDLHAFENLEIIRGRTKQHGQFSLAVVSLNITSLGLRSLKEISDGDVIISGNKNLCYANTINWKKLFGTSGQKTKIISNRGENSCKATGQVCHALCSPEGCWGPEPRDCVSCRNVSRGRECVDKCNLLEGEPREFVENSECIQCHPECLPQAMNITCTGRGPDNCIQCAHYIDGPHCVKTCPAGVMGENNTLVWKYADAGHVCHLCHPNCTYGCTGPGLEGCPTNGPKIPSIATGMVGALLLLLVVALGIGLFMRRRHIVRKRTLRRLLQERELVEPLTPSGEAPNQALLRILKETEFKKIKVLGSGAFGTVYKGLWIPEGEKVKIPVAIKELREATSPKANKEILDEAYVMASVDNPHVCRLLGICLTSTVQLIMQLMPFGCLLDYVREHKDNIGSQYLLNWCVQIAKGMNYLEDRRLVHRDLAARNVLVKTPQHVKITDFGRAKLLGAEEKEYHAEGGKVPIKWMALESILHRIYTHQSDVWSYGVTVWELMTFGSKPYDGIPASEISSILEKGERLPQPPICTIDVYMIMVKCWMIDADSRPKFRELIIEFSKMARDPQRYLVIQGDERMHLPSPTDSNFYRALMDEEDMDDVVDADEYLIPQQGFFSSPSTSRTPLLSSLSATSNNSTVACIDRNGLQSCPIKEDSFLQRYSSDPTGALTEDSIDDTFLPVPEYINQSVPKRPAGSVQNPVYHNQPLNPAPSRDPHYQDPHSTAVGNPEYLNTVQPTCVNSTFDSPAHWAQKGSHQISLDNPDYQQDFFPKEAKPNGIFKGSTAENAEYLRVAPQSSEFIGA

Regarding `C=CC(=O)N1CC[C@H](N2C(=O)N(c3ccccc3)Cc3cnc(Nc4cn(C)nc4Cl)nc32)C1` [Compound 41, (S)-1-(1-acryloylpyrrolidin-3-yl)-7-((3-chloro-1-methyl-1H-pyrazol-4-yl)amino)-3-phenyl-3,4-dihydropyrimido[4,5-d]pyrimidin-2(1H)-one], the IC50 is 0.58 µM in assay [1] and no less than 10 µM in assay [2]. Besides, the GI50 came out at 0.504 µM in assay [3] and 0.759 µM in assay [4].

Consider `C=CC(=O)N1CC[C@@H](N2C(=O)N(Cc3ccccc3)Cc3cnc(Nc4cn(C)nc4Cl)nc32)C1` (single isomer, unassigned) [Compound 38], for which the IC50 in assay [1] was found to be 0.446 µM; in assay [2] it was 7.49 µM. In addition, the GI50 in assay [3] and in assay [4] was no less than 10 µM in each case.

`CN(C)C/C=C/C(=O)NC1CCCC(N2C(=O)N(Cc3ccccc3)Cc3cnc(Nc4cn(C)nc4Cl)nc32)C1` (stereo not drawn) [Compound 33, (E)-N-(3-(3-benzyl-7-((3-chloro-1-methyl-1H-pyrazol-4-yl)amino)-2-oxo-3,4-dihydropyrimido[4,5-d]pyrimidin-1(2H)-yl)cyclohexyl)-4-(dimethylamino)but-2-enamide]: the IC50 was 0.869 µM in assay [1] and no less than 10 µM in assay [2]. The GI50 worked out at 4.08 µM in assay [3] and 3.88 µM in assay [4].

As for `C=CC(=O)NC1CCCC(N2C(=O)N(c3ccc(F)cc3)Cc3cnc(Nc4cn(C)nc4Cl)nc32)C1` (stereo not drawn) [Compound 36, N-(3-(7-((3-chloro-1-methyl-1H-pyrazol-4-yl)amino)-3-(4-fluorophenyl)-2-oxo-3,4-dihydropyrimido[4,5-d]pyrimidin-1(2H)-yl)cyclohexyl)acrylamide], the IC50 in assay [1] was 0.00297 µM; in assay [2], no less than 10 µM. The GI50 was 3.92 µM in assay [3] and no less than 10 µM in assay [4].

Turning to `CN(C)C/C=C/C(=O)N1CC[C@H](N2C(=O)N(c3ccccc3)Cc3cnc(Nc4cn(C)nc4Cl)nc32)C1` [Compound 42, (S,E)-7-((3-chloro-1-methyl-1H-pyrazol-4-yl)amino)-1-(1-(4-(dimethylamino)but-2-enoyl)pyrrolidin-3-yl)-3-phenyl-3,4-dihydropyrimido[4,5-d]pyrimidin-2(1H)-one], the IC50 in assay [1] and in assay [2] was no less than 10 µM in each case. The GI50 in assay [3] and in assay [4] was no less than 10 µM in each case.

With `CN(C)C/C=C/C(=O)N1CCC(N2C(=O)N(Cc3ccccc3)Cc3cnc(Nc4cn(C)nc4Cl)nc32)C1` (stereo not drawn) [Compound 34, (E)-3-benzyl-7-((3-chloro-1-methyl-1H-pyrazol-4-yl)amino)-1-(1-(4-(dimethylamino)but-2-enoyl)pyrrolidin-3-yl)-3,4-dihydropyrimido[4,5-d]pyrimidin-2(1H)-one], in assay [1], the IC50 worked out at 6.57 µM.

Turning to `CN(C)C/C=C/C(=O)Nc1cccc(N2C(=O)N(Cc3ccccc3)Cc3cnc(Nc4cnc(N5CCOCC5)nc4)nc32)c1` [Compound 55, (E)-N-(3-(3-benzyl-7-((2-morpholinopyrimidin-5-yl)amino)-2-oxo-3,4-dihydropyrimido[4,5-d]pyrimidin-1(2H)-yl)phenyl)-4-(dimethylamino)but-2-enamide], the IC50 in assay [2] is no less than 10 µM. In addition, the GI50 in assay [3] worked out at 1.67 µM; in assay [4], 3.86 µM.

With `CN(C)C/C=C/C(=O)Nc1cccc(N2C(=O)N(Cc3ccccc3)Cc3cnc(Nc4cn(C)nc4C(F)F)nc32)c1` [Compound 94, (E)-N-(3-(3-benzyl-7-((3-(difluoromethyl)-1-methyl-1H-pyrazol-4-yl)amino)-2-oxo-3,4-dihydropyrimido[4,5-d]pyrimidin-1(2H)-yl)phenyl)-4-(dimethylamino)but-2-enamide], the IC50 in assay [2] was no less than 10 µM. Also, the GI50 in assay [3] came to 0.039 µM; in assay [4], 0.043 µM.

For the compound `CN(C)C/C=C/C(=O)Nc1cccc(N2C(=O)N(Cc3ccccc3)Cc3cnc(Nc4ccncc4)nc32)c1` [Compound 96, (E)-N-(3-(3-benzyl-2-oxo-7-(pyridin-4-ylamino)-3,4-dihydropyrimido[4,5-d]pyrimidin-1(2H)-yl)phenyl)-4-(dimethylamino)but-2-enamide], in assay [2], the IC50 was no less than 10 µM. Besides, the GI50 in assay [3] is greater than 9.35 µM; in assay [4] it was 4.07 µM.
